Laboratory results: a compilation of properties of binary mixtures (doi:10.1016/j.fluid.2019.06.006)

Test: xn = mol fraction of the nth substance listed
Settings: 100 kPa

| viscosity (303.15 K, x1 = 0.0941) [mPa·s] | viscosity (303.15 K, x1 = 0.483) [mPa·s] | viscosity (313.15 K, x1 = 0.0941) [mPa·s] | viscosity (313.15 K, x1 = 0.1894) [mPa·s] | viscosity (313.15 K, x1 = 0.483) [mPa·s] | viscosity (313.15 K, x1 = 0.5836) [mPa·s] | viscosity (323.15 K, x1 = 0.0941) [mPa·s] | viscosity (323.15 K, x1 = 0.1894) [mPa·s] | viscosity (323.15 K, x1 = 0.2859) [mPa·s] | viscosity (323.15 K, x1 = 0.483) [mPa·s] | viscosity (323.15 K, x1 = 0.5836) [mPa·s] | viscosity (333.15 K, x1 = 0.0941) [mPa·s] | viscosity (333.15 K, x1 = 0.1894) [mPa·s] | viscosity (333.15 K, x1 = 0.2859) [mPa·s] | viscosity (333.15 K, x1 = 0.483) [mPa·s] | viscosity (333.15 K, x1 = 0.5836) [mPa·s] | viscosity (303.15 K, x2 = 0) [mPa·s] | viscosity (323.15 K, x2 = 0) [mPa·s] | viscosity (333.15 K, x2 = 0) [mPa·s] | SMILES |
| --- | --- | --- | --- | --- | --- | --- | --- | --- | --- | --- | --- | --- | --- | --- | --- | --- | --- | --- | --- |
| 307 | 1491.9 | 155 | 143.2 | 572 | 816 | 88 | 80.7 | 292 | 257 | 348 | 54.4 | 49.5 | 153 | 130.5 | 170.6 | – | – | – | OC[C@@H](O)[C@@H](O)[C@H](O)[C@@H](O)CO + CC(=O)[O-].CC[n+]1ccn(C)c1 |
| – | – | – | – | – | – | – | – | – | – | – | – | – | – | – | – | 89.4 | 34.6 | 23.8 | CC(=O)[O-].CC[n+]1ccn(C)c1 + OC[C@H](O)[C@@H](O)[C@H](O)[C@H](O)CO |
